The text below walks through data of patent US11903385B1, “1-(butyl(2-hydroxy-3-(naphthalen-1-yloxy)propyl)amino)-3-(naphthalen-2-yloxy)propan-2-ol as an eco-friendly insecticidal agent against Spodoptera littoralis (boisd.)” (KING FAISAL UNIVERSITY, priority 2023, dated 2024).

The structures appear in SMILES notation. In brackets after ≈: the same amount, converted by molar mass. Read-outs that look alike come from different tables or passages of the source.

The subject of data set [1] is S. littoralis larvae. The data set can be described thus: Insecticidal leaf dip bioassay screening. Particulars: 72 h; for Toxicity ratio: fenoxycarb's LC50 / the compound's LC50; for LC50: Spodoptera littoralis, foliar.
Procedure: Until usage, the stocks were kept in a refrigerator. The target substance test results were noted & the concentrations needed to destroy 50% (LC50) of S. littoralis larvae were calculated. The target compound was employed in five different concentrations, and 0.1% Tween 80 was employed as a surfactant. Castor bean leaf discs (nine centimeters in diameter) were dipped in the concentration under test for ten seconds, then fed to 2th & 4th larvae, which were roughly the same size and housed in glass jars (five lb). Each action was carried out 3 times with ten larvae each. The mortality equalized via Abbott's formula. Calculations of mortality setback line were measurably rummage via probity analysis. […] The mortality results of larval insect were estimated through employing probit analysis through a statistics (LDP-line) equation which estimate the LC50 values with 95% fiducially limits of lower, upper confidence limit and slope.
In data set [2] the test system is aquatic insects. Particulars: cited from earlier work.
Where [3] appears, read: read-out: LC50 (mg/L) at 95%, 2nd instar larvae, after 72 h of treatment.
Where [4] appears, read: read-out: LC50 (mg/L) at 95%, 4th instar larvae, after 72 h of treatment.

As for `CCCCN(CC(O)COc1ccc2ccccc2c1)CC(O)COc1cccc2ccccc12` (stereo not drawn) [III, 1-(butyl(2-hydroxy-3-(naphthalen-1-yloxy)propyl)amino)-3-(naphthalen-2-yloxy)propan-2-ol], the Toxicity ratio came out at 0.253 in data set [1] (2nd instar larvae) and 0.551 in data set [1] (4th instar larvae). Besides, the values for the LC50 in data set [1] (setting [3]) and in data set [1] (setting [4]) were ~10.8 mg/L (≈ 22.7 µM) and ~16.6 mg/L (≈ 35.2 µM), respectively.
As for `CCc1ccc(C(=O)NN(C(=O)c2cc(C)cc(C)c2)C(C)(C)C)cc1` [tebufenozide], the LC50 in data set [2] is 100 to 1000 µg/mL.
With `CCOC(=O)NCCOc1ccc(Oc2ccccc2)cc1` [Fenoxycarb], the Toxicity ratio in data set [1] (2nd instar larvae) and in data set [1] (4th instar larvae) was 1 in each case. Further, the LC50 came to 2.73 mg/L (≈ 9.06 µM) in data set [1] (setting [3]) and 9.18 mg/L (≈ 30.5 µM) in data set [1] (setting [4]).
